According to patent US8324390B2, “Tetrazole-substituted anthranilamides as pesticides” (Bayer CropScience AG, priority 2008, dated 2012):
Read-outs that look alike come from different tables or passages of the source.

Tests used:
[1] = log P determination by HPLC (EEC Directive 79/831 Annex V.A8); type: physicochemical
Experimental: The measurements were carried out using an Agilent 1100 LC system with a 50*4.6 Zorbax Eclipse C18 1.8 μm column (oven temperature 55° C., flow rate 2.0 ml/min).
The following mobile phases were used:
Mobile phase A: acetonitrile+1000 μl of formic acid/l
Mobile phase B: Millipore water+900 μl of formic acid/l

[2] = test system: caterpillars of the armyworm (Spodoptera frugiperda); test: Spodoptera frugiperda test (SPODFR spray treatment); type: in vivo; conditions: Spodoptera frugiperda, foliar, read-out: effect in % (caterpillars killed)
Text: (§1) Solvent: 78.0 parts by weight of acetone

[3] = test system: green peach aphid (Myzus persicae); test: Myzus test (MYZUPE spray treatment); type: in vivo; conditions: Myzus persicae, foliar, read-out: effect in % (aphids killed)
Text: Solvent: 78 parts by weight of acetone
as §1

[4] = test system: larvae of the mustard beetle (Phaedon cochleariae); test: Phaedon test (PHAECO spray treatment); conditions: Phaedon cochleariae, in Brassica rapa, foliar, read-out: effect in % (beetle larvae killed)
[5] = reversed-phase HPLC, Zorbax Eclipse C18 column, determined by HPLC according to EEC Directive 79/831 Annex V.A8, read-out: log P
[6] = application rate 100 g/ha, maize leaf discs
[7] = application rate 100 g/ha, Chinese cabbage leaf discs
[8] = reversed-phase HPLC, Zorbax Eclipse C18 column, by HPLC according to EEC Directive 79/831 Annex V.A8, read-out: log P

chromatographic logP [1, 5]	chromatographic logP [1, 8]	SMILES	chromatographic logP ([1]; log P)	pest or weed control at 100 g/ha ([2]; in Zea mays)	pest or weed control at 100 g/ha ([3]; in Brassica rapa)	pest or weed control at 100 g/ha [4]	pest or weed control at 100 g/ha [2, 6]	pest or weed control at 100 g/ha [3, 7]	pest or weed control at 20 g/ha ([3]; in Brassica rapa)
		NC(=O)c1cc(Cl)cc(Cl)c1NC(=O)c1cc(Cn2nnc(C(F)(F)F)n2)nn1-c1ncccc1Cl [Example 55]	2.72	≥ 80%	≥ 80%	≥ 80%			
		CNC(=O)c1cc(C#N)cc(C)c1NC(=O)c1cc(Cn2nnc(C3CC3)n2)nn1-c1ncccc1Cl [Example 102]	2.15	≥ 80%	≥ 80%	≥ 80%			
2.43		Cc1cc(Cl)cc(C(N)=O)c1NC(=O)c1cc(Cn2nnnc2C(F)(F)F)nn1-c1ncccc1Br [Example 481]				≥ 80%	≥ 80%	≥ 80%	
3.61		Cc1cc(C#N)cc(C(=O)NCC2CC2)c1NC(=O)c1cc(Cn2nnc(C(F)(F)F)n2)nn1-c1ccccc1Cl [Example 440]				≥ 80%	≥ 80%	≥ 80%	
2.9		Cc1cc(Cl)cc(C(=O)NC2CC2)c1NC(=O)c1cc(Cn2nnnc2C(F)(F)F)nn1-c1ncccc1Br [Example 487]				≥ 80%	≥ 80%	≥ 80%	
		Cc1cc(C#N)cc(C(=O)NC2CC2)c1NC(=O)c1cc(Cn2nnnc2C(F)(F)F)nn1-c1ncccc1Cl [Example 166]	2.53	≥ 80%	≥ 80%	≥ 80%			
		Cc1cc(I)cc(C(=O)NC(C)(C)C)c1NC(=O)c1cc(Cn2nnnc2C(F)(F)F)nn1-c1ncccc1Cl [Example 183]	3.74	≥ 80%	≥ 80%	≥ 80%			
3.29		Cc1cc(C#N)cc(C(=O)NC2CC2)c1NC(=O)c1cc(Cn2nnc(C(F)(F)F)n2)nn1-c1ccccc1Cl [Example 442]				≥ 80%	≥ 80%	≥ 80%	
		CNC(=O)c1cc(Cl)cc(C)c1NC(=O)c1cc(C(C)n2nnc(C(F)(F)F)n2)nn1-c1ncccc1Cl (centres unmarked) [Example 543]	3.26	≥ 80%	≥ 80%	≥ 80%			
		N#CCNC(=O)c1cc(Cl)cc(Cl)c1NC(=O)c1cc(Cn2nnc(C(F)F)n2)nn1-c1ncccc1Cl [Example 290]	2.48	≥ 80%	≥ 80%	≥ 80%			
3.54		Cc1cc(I)cc(C(=O)NC(C)C)c1NC(=O)c1cc(Cn2nnnc2C(F)(F)F)nn1-c1ncccc1C(F)(F)F [Example 450]				≥ 80%	≥ 80%	≥ 80%	
3.16		CCNC(=O)c1cc(I)cc(C)c1NC(=O)c1cc(Cn2nnnc2C(F)(F)F)nn1-c1ncccc1Br [Example 503]				≥ 80%	≥ 80%	≥ 80%	
		Cc1cc(I)cc(C(=O)NC2CC2)c1NC(=O)c1cc(Cn2nnnc2C(F)(F)F)nn1-c1ncccc1Cl [Example 174]	3.12	≥ 80%	≥ 80%	≥ 80%			
		CNC(=O)c1cc(C)cc(C)c1NC(=O)c1cc(Cn2nnc(C(F)(F)F)n2)nn1-c1ncccc1Cl [Example 78]	2.81	≥ 80%	≥ 80%	≥ 80%			
		Cc1cc(Cl)cc(C(=O)NC2CC2)c1NC(=O)c1cc(Cn2nnnc2C(F)(F)C(F)(F)F)nn1-c1ncccc1Cl [Example 200]	3.32	≥ 80%	≥ 80%	≥ 80%			
		CNC(=O)c1cc(Br)cc(C)c1NC(=O)c1cc(Cn2nnnc2C(F)(F)F)nn1-c1ncccc1Cl [Example 170]	2.72	≥ 80%	≥ 80%	≥ 80%			
		Cc1cc(C#N)cc(C(=O)NC(C)C)c1NC(=O)c1cc(Cn2nnc(C(F)F)n2)nn1-c1ncccc1Cl [Example 266]	2.58	≥ 80%	≥ 80%	≥ 80%			
		Cc1cc(C#N)cc(C(=O)NC(C)(C)C)c1NC(=O)c1cc(Cn2nnc(C3CC3)n2)nn1-c1ncccc1Cl [Example 105]	2.93	≥ 80%	≥ 80%	≥ 80%			

chromatographic logP [1, 5]	chromatographic logP [1, 8]	SMILES	chromatographic logP ([1]; log P)	pest or weed control at 100 g/ha ([2]; in Zea mays)	pest or weed control at 100 g/ha ([3]; in Brassica rapa)	pest or weed control at 100 g/ha [4]	pest or weed control at 100 g/ha [2, 6]	pest or weed control at 100 g/ha [3, 7]	pest or weed control at 20 g/ha ([3]; in Brassica rapa)
	3.6	Cc1cc(C#N)cc(C(=O)NC(C)C)c1NC(=O)c1cc(Cn2nnc(C(F)(F)F)n2)nn1-c1ccccc1Cl [Example 341]				≥ 80%	≥ 80%	≥ 80%	
	2.95	Cc1cc(I)cc(C(N)=O)c1NC(=O)c1cc(Cn2nnc(C(F)(F)F)n2)nn1-c1ncccc1Br [Example 351]				≥ 80%	≥ 80%	≥ 80%	
		Cc1cc(Cl)cc(C(=O)NC(C)C2CC2)c1NC(=O)c1cc(Cn2nnnc2C(F)F)nn1-c1ncccc1Cl (centres unmarked) [Example 460]	3.07	≥ 80%		≥ 80%			≥ 80%
3.58		Cc1cc(C#N)cc(C(=O)NC(C)(C)C)c1NC(=O)c1cc(Cn2nnnc2C(F)(F)F)nn1-c1ccccc1C(F)(F)F [Example 488]				≥ 80%	≥ 80%	≥ 80%	
	3.49	Cc1cc(Cl)cc(C(=O)NC(C)C)c1NC(=O)c1cc(Cn2nnc(C(F)(F)F)n2)nn1-c1ncccc1Br [Example 334]				≥ 80%	≥ 80%	≥ 80%	
		CC(C)(C)NC(=O)c1cc(Cl)cc(Cl)c1NC(=O)c1cc(Cn2nnnc2C(F)F)nn1-c1ncccc1Cl [Example 471]	3.05	≥ 80%	≥ 80%	≥ 80%			
		CNC(=O)c1cc(C#N)cc(C)c1NC(=O)c1cc(Cn2nnnc2C(F)F)nn1-c1ncccc1Cl [Example 472]	1.97	≥ 80%	≥ 80%	≥ 80%			
3.65		Cc1cc(Br)cc(C(=O)NC(C)(C)C)c1NC(=O)c1cc(Cn2nnnc2C(F)(F)F)nn1-c1ncccc1Br [Example 507]				≥ 80%	≥ 80%	≥ 80%	
		Cc1cc(Br)cc(C(=O)NC(C)(C)C)c1NC(=O)c1cc(Cn2nnc(C(F)(F)C(F)(F)F)n2)nn1-c1ncccc1Cl [Example 219]	4.36	≥ 80%	≥ 80%	≥ 80%			
		CCNC(=O)c1cc(C#N)cc(C)c1NC(=O)c1cc(Cn2nnnc2C(F)(F)F)nn1-c1ncccc1Cl [Example 191]	2.5	≥ 80%	≥ 80%	≥ 80%			
2.97		Cc1cc(C#N)cc(C(=O)NCC#N)c1NC(=O)c1cc(Cn2nnc(C(F)(F)F)n2)nn1-c1ccccc1Cl [Example 540]				≥ 80%	≥ 80%	≥ 80%	
		Cc1cc(Cl)cc(C(=O)NCC2CC2)c1NC(=O)c1cc(Cn2nnc(C(F)F)n2)nn1-c1ncccc1Cl [Example 259]	3.04	≥ 80%	≥ 80%	≥ 80%			
		Cc1cc(Br)cc(C(=O)NC2CC2)c1NC(=O)c1cc(Cn2nnc(C(F)(F)F)n2)nn1-c1ncccc1Cl [Example 26]	3.3	≥ 80%	≥ 80%	≥ 80%			
		Cc1cc(C#N)cc(C(=O)NC2CC2)c1NC(=O)c1cc(Cn2nnc(C(F)(F)C(F)(F)F)n2)nn1-c1ncccc1Cl [Example 214]	3.26	≥ 80%	≥ 80%	≥ 80%			
		COC(C)(C)CNC(=O)c1cc(C#N)cc(C)c1NC(=O)c1cc(Cn2nnc(C(F)(F)F)n2)nn1-c1ncccc1Cl [Example 95]	3.12	≥ 80%	≥ 80%	≥ 80%			
		Cc1cc(I)cc(C(N)=O)c1NC(=O)c1cc(Cn2nnc(C(F)F)n2)nn1-c1ncccc1Cl [Example 272]	2.53	≥ 80%	≥ 80%	≥ 80%			
		CNC(=O)c1cc(I)cc(C)c1NC(=O)c1cc(Cn2nnnc2C(F)(F)F)nn1-c1ncccc1Cl [Example 172]	2.86	≥ 80%	≥ 80%	≥ 80%			
